The results in this text go back to ChEMBL document CHEMBL3272271, “Folate antagonists. 13. 2,4-Diamino-6-](alpha,alpha,alpha-trifluoro-m-tolyl)thio]quinazoline and related 2,4-diamino-6-[(phenyl- and naphthyl)thio]quinazolines, a unique class of antimetabolites with extraordinary antimalarial and antibacterial effects” (J Med Chem, 1978).

Activity calls are given as the source filed them. The rule behind the calls is not given here.

The test system of assay [1] is Plasmodium berghei. The experiment in a line: Antimalarial activity against chloroquine-resistant Plasmodium berghei assessed as drug resistance. Type of assay: functional, organism-based.
Assay [2] has as its system Plasmodium berghei. In words: Antimalarial activity against Plasmodium berghei infected in mouse assessed as increase in mean survival days of host at 2.5 mg/kg, sc administered 72 hrs after infection relative to control. Type of assay: functional. Conditions: route subcutaneous.
In assay [3] the test system is Plasmodium berghei. The experiment in a line: Antimalarial activity against Plasmodium berghei infected in mouse assessed as disease cure from parasite infection at 80 mg/kg, sc administered 72 hrs after infection. Type of assay: functional, organism-based. On the set-up: dose 80 mg/kg.
The test system of assay [4] is Plasmodium berghei. In words: Antimalarial activity against Plasmodium berghei infected in mouse assessed as disease cure from parasite infection at 640 mg/kg, sc administered 72 hrs after infection. Type of assay: functional, organism-based. Details: dose 640 mg/kg.
For assay [5], the system named is Plasmodium gallinaceum. The experiment in a line: Antimalarial activity against trophozoite-induced Plasmodium gallinaceum infected in white leghorn chicken assessed as disease cure from parasite infection at 100 mg/kg, sc administered 72 hrs after infection. It counts as functional, organism-based. On the set-up: dose 100 mg/kg.
Assay [6] concerns Plasmodium berghei. The experiment in a line: Antimalarial activity against Plasmodium berghei infected in mouse assessed as disease cure from parasite infection at 40 mg/kg, sc administered 72 hrs after infection. Details: dose 40 mg/kg. It counts as functional, organism-based.
The subject of assay [7] is Plasmodium berghei. In words: Antimalarial activity against Plasmodium berghei infected in mouse assessed as increase in mean survival days of host at 20 mg/kg, sc administered 72 hrs after infection relative to control. Type of assay: functional. Conditions: route subcutaneous.
The subject of assay [8] is Plasmodium berghei. In words: Antimalarial activity against Plasmodium berghei infected in mouse assessed as increase in mean survival days of host at 1.25 mg/kg, sc administered 72 hrs after infection relative to control. Conditions: route subcutaneous. It counts as functional.
Assay [9] relates to Plasmodium berghei. In words: Antimalarial activity against Plasmodium berghei infected in mouse assessed as increase in mean survival days of host at 5 mg/kg, sc administered 72 hrs after infection relative to control. Type of assay: functional. Particulars: route subcutaneous.
For assay [10], the system named is Plasmodium berghei. The experiment in a line: Antimalarial activity against cycloguanil-resistant Plasmodium berghei assessed as drug resistance. Type of assay: functional, organism-based.
The subject of assay [11] is Plasmodium berghei. The experiment in a line: Antimalarial activity against Plasmodium berghei infected in mouse assessed as disease cure from parasite infection at 20 mg/kg, sc administered 72 hrs after infection. Type of assay: functional, organism-based. Details: dose 20 mg/kg.
The subject of assay [12] is Plasmodium gallinaceum. The experiment in a line: Antimalarial activity against trophozoite-induced Plasmodium gallinaceum infected in white leghorn chicken assessed as increase in mean survival days of host at 100 mg/kg, sc administered 72 hrs after infection relative to control. Type of assay: functional. Particulars: route subcutaneous.
Assay [13] concerns Plasmodium berghei. The experiment in a line: Antimalarial activity against Plasmodium berghei infected in mouse assessed as disease cure from parasite infection at 10 mg/kg, sc administered 72 hrs after infection. It counts as functional, organism-based. Details: dose 10 mg/kg.
Assay [14] deals with Plasmodium berghei. The experiment in a line: Antimalarial activity against Plasmodium berghei infected in mouse assessed as increase in mean survival days of host at 10 mg/kg, sc administered 72 hrs after infection relative to control. Type of assay: functional. Particulars: route subcutaneous.
The test system of assay [15] is Plasmodium berghei. The experiment in a line: Antimalarial activity against Plasmodium berghei infected in mouse assessed as disease cure from parasite infection at 160 mg/kg, sc administered 72 hrs after infection. It counts as functional, organism-based. On the set-up: dose 160 mg/kg.
The subject of assay [16] is Plasmodium berghei. In words: Antimalarial activity against Plasmodium berghei infected in mouse assessed as disease cure from parasite infection at 320 mg/kg, sc administered 72 hrs after infection. Type of assay: functional, organism-based. On the set-up: dose 320 mg/kg.

`Nc1nc(N)c2cc(Sc3ccc(Cl)c(Cl)c3)ccc2n1`: the outcome in assay [1] was inactive. The MST in assay [2] came to 5.9 days; in assay [7] it was 15.9 days; in assay [8], 0.9 days; in assay [9], 8.5 days; in [12] it was 20.8 days; in assay [14], 11.7 days. Moreover, the result in [3], in [4], in [5], in [6], in assay [10] and in [11] was Active. In addition, the outcome in assay [13], in [15] and in assay [16] was Active.
